Data on 21 molecules can be found in US7786141B2 (Vertex Pharmaceuticals Incorporated, priority 2004, dated 2010).

One experiment addresses T1, M4 muscarinic receptor (Homo sapiens, UniProt P08173).
T1 construct: expressed in transfected cells; host or cells: CHO (M4-CHO)
T1 sequence (P08173 1-479): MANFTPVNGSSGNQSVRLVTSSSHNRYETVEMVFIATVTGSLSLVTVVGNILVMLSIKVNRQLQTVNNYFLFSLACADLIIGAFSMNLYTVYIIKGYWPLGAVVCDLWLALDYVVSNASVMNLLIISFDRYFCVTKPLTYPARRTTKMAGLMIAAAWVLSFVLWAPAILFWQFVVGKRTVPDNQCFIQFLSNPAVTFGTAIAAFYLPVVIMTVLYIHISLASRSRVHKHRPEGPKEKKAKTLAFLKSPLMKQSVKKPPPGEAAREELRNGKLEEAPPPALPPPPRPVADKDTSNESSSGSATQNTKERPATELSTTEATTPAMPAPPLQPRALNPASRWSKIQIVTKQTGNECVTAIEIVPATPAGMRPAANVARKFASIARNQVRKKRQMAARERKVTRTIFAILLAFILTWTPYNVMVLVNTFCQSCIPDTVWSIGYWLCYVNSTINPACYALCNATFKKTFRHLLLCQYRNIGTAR
Briefly: Functional mobilization of intracellular calcium (FLIPR) in M4-CHO cells. It counts as cell-based. The settings on record: Table 4; for Emax: 100% efficacy is the maximum response obtained with the Carbachol control; for M4 Activity: M4 receptor, calcium mobilization (FLIPR). The method in brief: (§1)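 Measured via Fluo-3 fluorescence on a FLIPR, CHO cells with either muscarinic subtype received compound in 0.5% DMSO. Antagonism was assessed after 15 min pre-incubation followed by carbachol at each subtype's EC80; agonism from compound addition alone.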
On the technique in general: A change in cytosolic calcium serves as a functional read-out for many receptors and channels.

For the next experiment, the target named is T2, M1 muscarinic receptor (Homo sapiens, UniProt P11229).
T2 construct: expressed in transfected cells; host or cells: CHO (M1-CHO)
T2 sequence (P11229 1-460): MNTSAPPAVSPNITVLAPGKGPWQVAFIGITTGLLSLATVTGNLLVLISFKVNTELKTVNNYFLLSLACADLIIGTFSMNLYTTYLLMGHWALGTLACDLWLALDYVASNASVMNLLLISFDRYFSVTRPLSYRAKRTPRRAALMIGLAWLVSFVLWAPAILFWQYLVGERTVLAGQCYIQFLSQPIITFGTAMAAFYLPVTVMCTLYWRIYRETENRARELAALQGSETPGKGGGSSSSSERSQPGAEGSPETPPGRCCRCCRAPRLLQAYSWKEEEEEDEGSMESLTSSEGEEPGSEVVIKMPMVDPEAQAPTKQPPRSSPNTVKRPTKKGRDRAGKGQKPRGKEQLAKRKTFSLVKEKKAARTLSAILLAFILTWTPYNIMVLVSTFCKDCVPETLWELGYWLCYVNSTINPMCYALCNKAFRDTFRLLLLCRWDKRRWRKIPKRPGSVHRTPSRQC
As to the kind of experiment: Functional mobilization of intracellular calcium (FLIPR) in M1-CHO cells. It counts as cell-based. The following applies: Table 4; for Emax: 100% efficacy is the maximum response obtained with the Carbachol control; for M1 Activity: M1 receptor, calcium mobilization (FLIPR). The method in brief: as §1

Broadly, the Emax is the size of the effect at its maximum, as opposed to the concentration needed. For the molecule `CCOC(=O)N1CCC(N2CCC3(CC2)CN(C(C)=O)c2c(CC)cccc23)CC1` [compound 859], on M4 muscarinic receptor, the maximal effect (Emax) is 25 to 100% and the “M4 Activity” value is “x (activity was measured to be greater than 5.0 μM)”. For the same molecule, on M1 muscarinic receptor, the maximal response (Emax) lay within 25 to 100% and the “M1 Activity” value was “x (activity was measured to be greater than 5.0 μM)”.
Take `CC(=O)N1CC2(CCN(C[C@H]3CCN(c4cnccn4)C3)CC2)c2c(C)cccc21` [compound 860]: at M4 muscarinic receptor, the Emax lay in the range of 25 to 100% and the “M4 Activity” value was “xxx (activity was measured to be less than 2.0 μM)”. Also, at M1 muscarinic receptor, the Emax was in the range of 25 to 100% and the “M1 Activity” value is “xxx (activity was measured to be less than 2.0 μM)”.
For `CC(=O)N[C@H]1CCC2(CCN([C@H]3CC4CC[C@H](C4)C3)CC2)c2ccccc21` [compound 861], at M4 muscarinic receptor, the maximum response (Emax) is 25 to 100% and the “M4 Activity” value is listed as “xxx (activity was measured to be less than 2.0 μM)”. Also, at M1 muscarinic receptor, the maximum response (Emax) was 25 to 100% and the “M1 Activity” value is listed as “xxx (activity was measured to be less than 2.0 μM)”.
With `CCOC(=O)N1CCC(N2CCC3(CC2)CN(C(C)=O)c2ccc(C#N)cc23)CC1` [compound 862], at M4 muscarinic receptor, the maximum response (Emax) is 25 to 100% and the “M4 Activity” value was “xxx (activity was measured to be less than 2.0 μM)”. In addition, on M1 muscarinic receptor, the Emax lay in the range of 25 to 100% and the “M1 Activity” value is “xxx (activity was measured to be less than 2.0 μM)”.
With `Cc1ccc2c(c1)C(=O)CC21CCN(C2CCCCCC2)CC1` [compound 863], at M4 muscarinic receptor, the maximum response (Emax) lay in the range of 25 to 100%; the “M4 Activity” value was “xx (activity was measured to be between 2.0 μM and 5.0 μM)”. Further, at M1 muscarinic receptor, the Emax was 25 to 100% and the “M1 Activity” value is given as “x (activity was measured to be greater than 5.0 μM)”.
`CC(=O)N1CC2(CCN(C[C@H]3CCN(C(=O)OC(C)C)C3)CC2)c2ccccc21` [compound 864]: at M4 muscarinic receptor, the maximal effect (Emax) is less than 25% and the “M4 Activity” value was “x (activity was measured to be greater than 5.0 μM)”. Further, on M1 muscarinic receptor, the maximal effect (Emax) was less than 25% and the “M1 Activity” value is on record as “x (activity was measured to be greater than 5.0 μM)”.
Take `CCO/N=C1\CC2(CCN([C@@H]3C[C@@H]4CC[C@@H]3C4)CC2)c2cc(Cl)ccc21` [compound 865]: at M4 muscarinic receptor, the Emax is 25 to 100% and the “M4 Activity” value is “xxx (activity was measured to be less than 2.0 μM)”. For the same molecule, at M1 muscarinic receptor, the maximum response (Emax) lay within 25 to 100%; the “M1 Activity” value is “xx (activity was measured to be between 2.0 μM and 5.0 μM)”.
With `CN(C)C(=O)N1CC2(CCN(C3CCN(c4cccc(F)c4)CC3)CC2)c2cc(F)ccc21` [compound 866], on M4 muscarinic receptor, the Emax was 25 to 100% and the “M4 Activity” value is on record as “xxx (activity was measured to be less than 2.0 μM)”. For the same molecule, at M1 muscarinic receptor, the Emax was in the range of 25 to 100%; the “M1 Activity” value is “xx (activity was measured to be between 2.0 μM and 5.0 μM)”.
`O=C(N[C@H]1CC2(CCN([C@@H]3C[C@@H]4CC[C@@H]3C4)CC2)c2ccccc21)c1ccoc1` [compound 868]: on M4 muscarinic receptor, the Emax was 25 to 100% and the “M4 Activity” value is on record as “xxx (activity was measured to be less than 2.0 μM)”. At M1 muscarinic receptor, the maximal effect (Emax) is less than 25% and the “M1 Activity” value is recorded as “x (activity was measured to be greater than 5.0 μM)”.
Consider `CCOC(=O)N1CCC(CN2CCC3(CC2)CN(C(C)=O)c2c(C)cc(C)cc23)CC1` [compound 869], for which, on M4 muscarinic receptor, the Emax was in the range of 25 to 100% and the “M4 Activity” value is reported as “xxx (activity was measured to be less than 2.0 μM)”. Besides, at M1 muscarinic receptor, the Emax is 25 to 100%; the “M1 Activity” value is “xx (activity was measured to be between 2.0 μM and 5.0 μM)”.
For `CC(=O)N1CC2(CCN(C[C@H]3CCN(C(=O)OCC(F)F)C3)CC2)c2ccccc21` [compound 871], at M4 muscarinic receptor, the Emax lay in the range of 25 to 100%; the “M4 Activity” value is “xx (activity was measured to be between 2.0 μM and 5.0 μM)”. Also, at M1 muscarinic receptor, the Emax fell in the range of 25 to 100% and the “M1 Activity” value was “x (activity was measured to be greater than 5.0 μM)”.
`CCOC(=O)N1CCC(N2CCC3(CC2)CN(C(C)=O)c2ccc(C(C)C)cc23)CC1` [compound 872]: at M4 muscarinic receptor, the Emax was in the range of 25 to 100% and the “M4 Activity” value is “xxx (activity was measured to be less than 2.0 μM)”. For the same molecule, at M1 muscarinic receptor, the Emax is 25 to 100% and the “M1 Activity” value is “xxx (activity was measured to be less than 2.0 μM)”.
For `CC1=C(CCN2CCC3(CC2)C[C@H](NC(=O)C2CCCC2)c2ccccc23)C(C)(C)CCC1` [compound 873], at M4 muscarinic receptor, the Emax is less than 25% and the “M4 Activity” value is “x (activity was measured to be greater than 5.0 μM)”. For the same molecule, at M1 muscarinic receptor, the Emax is less than 25% and the “M1 Activity” value was “x (activity was measured to be greater than 5.0 μM)”.
As to `CC(=O)NC1CCC2(CCN(CCC3CCCN(C(C)=O)C3)CC2)c2ccccc21` (stereo not drawn) [compound 874], on M4 muscarinic receptor, the Emax is less than 25% and the “M4 Activity” value is “x (activity was measured to be greater than 5.0 μM)”. On M1 muscarinic receptor, the Emax lay in the range of 25 to 100%; the “M1 Activity” value is “xx (activity was measured to be between 2.0 μM and 5.0 μM)”.
Take `COC(=O)N1CCC(CCN2CCC3(CCC(NC(C)=O)c4ccccc43)CC2)CC1` (stereo not drawn) [compound 875]: on M4 muscarinic receptor, the Emax was less than 25% and the “M4 Activity” value is “x (activity was measured to be greater than 5.0 μM)”. Also, on M1 muscarinic receptor, the Emax fell in the range of 25 to 100% and the “M1 Activity” value is “xxx (activity was measured to be less than 2.0 μM)”.
For `CC(=O)CN1CC2(CCN(C[C@H]3C[C@H]4C=CC3C4)CC2)c2cc(F)ccc21` [compound 877], in that order: 25 to 100%, “xxx (activity was measured to be less than 2.0 μM)”, 25 to 100% and “xxx (activity was measured to be less than 2.0 μM)”.
Taken in the same sequence, the figures for `CC(=O)CN1CC2(CCN([C@@H]3C[C@H]4CCC3C4)CC2)c2cc(C)ccc21` [compound 878] were 25 to 100%, “xxx (activity was measured to be less than 2.0 μM)”, 25 to 100% and “xxx (activity was measured to be less than 2.0 μM)”.
Taken in the same sequence, the figures for `CCOC(=O)N1CCC(N2CCC3(CC2)CN(c2nccs2)c2ccc(F)cc23)CC1` [compound 879] were 25 to 100%, “xxx (activity was measured to be less than 2.0 μM)”, 25 to 100% and “xxx (activity was measured to be less than 2.0 μM)”.
Consider `CC(=O)N1CCC(N2CCC3(CC2)CN(C(=O)N(C)C)c2ccc(F)cc23)CC1` [compound 880], for which, on M4 muscarinic receptor, the maximal effect (Emax) was less than 25% and the “M4 Activity” value is given as “x (activity was measured to be greater than 5.0 μM)”. Also, on M1 muscarinic receptor, the Emax is less than 25% and the “M1 Activity” value is recorded as “x (activity was measured to be greater than 5.0 μM)”.
Regarding `CC(=O)N[C@H]1CCC2(CCN(C3CCCCCC3)CC2)c2ccccc21` [compound 881], on M4 muscarinic receptor, the Emax lay within 25 to 100% and the “M4 Activity” value was “xxx (activity was measured to be less than 2.0 μM)”. On M1 muscarinic receptor, the Emax fell in the range of 25 to 100% and the “M1 Activity” value is given as “xxx (activity was measured to be less than 2.0 μM)”.
Turning to `CC(=O)N[C@@H]1CCC2(CCN(CC3CCCCC3)CC2)c2ccccc21` [compound 882], on M4 muscarinic receptor, the Emax is less than 25% and the “M4 Activity” value was “x (activity was measured to be greater than 5.0 μM)”. Besides, at M1 muscarinic receptor, the Emax was less than 25% and the “M1 Activity” value is recorded as “x (activity was measured to be greater than 5.0 μM)”.
